# Assay results: patent publication US9936701B2, “Herbicidal compounds” (Syngenta Participations AG, priority 2013, dated 2018)
# Tested on: a variety of test species
# Test: Pre-emergence herbicidal activity (glasshouse, sprayed one day after sowing, evaluated after 13 days)
# Assay type: in vivo
# Design: key: 5=total damage to plant; 0=no damage to plant
# Conditions: ABUTH, application pre-emergence, rate 1000 g/Ha, scale 0-5
# How it was run: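 Pre-emergence spray, one day post-sowing; vehicle acetone/water (50:50) + 0.5% Tween 20, aqueous dilution. Glasshouse 24/16 °C, 14 h light, 65% RH, watering twice daily. Score at 13 d on 0–5 scale, 5 = total damage.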
row,Structure (SMILES),"Pre-emergence herbicidal damage score, ABUTH"
1,COCC(C)(C)c1cc(N2C(=O)C(C)=C(OC)C2O)no1 (stereo not shown) [G3],5
2,COC1=C(C)C(=O)N(c2noc(C(C)(C)C)c2C#N)C1O (stereo not shown) [G7],5

# Same assay, conditions: ALOMY, application pre-emergence, rate 1000 g/Ha, scale 0-5
row,Structure (SMILES),"Pre-emergence herbicidal damage score, ALOMY"
1,"CC1=C(Cl)C(=O)N(c2noc(C(C)(C)C)c2F)C1O (stereo not shown) [A19, 1-(5-tert-butyl-4-fluoro-isoxazol-3-yl)-4-chloro-2-hydroxy-3-methyl-2H-pyrrol-5-one]",4
2,"CC1=C(Cl)C(=O)N(c2noc(C(C)(C)C)c2C)C1O (stereo not shown) [A20, 1-(5-tert-butyl-4-methyl-isoxazol-3-yl)-4-chloro-2-hydroxy-3-methyl-2H-pyrrol-5-one]",4
3,CC1=C(Cl)C(=O)N(c2cc(C3CCC3)on2)C1O (stereo not shown) [A21],3
4,COCC(C)(C)c1cc(N2C(=O)C(C)=C(OC)C2O)no1 (stereo not shown) [G3],3
5,COC1=C(C)C(=O)N(c2noc(C(C)(C)C)c2C#N)C1O (stereo not shown) [G7],4

# Same assay, conditions: AMARE, application pre-emergence, rate 1000 g/Ha, scale 0-5
row,Structure (SMILES),"Pre-emergence herbicidal damage score, AMARE"
1,"CC1=C(Cl)C(=O)N(c2noc(C(C)(C)C)c2F)C1O (stereo not shown) [A19, 1-(5-tert-butyl-4-fluoro-isoxazol-3-yl)-4-chloro-2-hydroxy-3-methyl-2H-pyrrol-5-one]",5
2,"CC1=C(Cl)C(=O)N(c2noc(C(C)(C)C)c2C)C1O (stereo not shown) [A20, 1-(5-tert-butyl-4-methyl-isoxazol-3-yl)-4-chloro-2-hydroxy-3-methyl-2H-pyrrol-5-one]",1
3,CC1=C(Cl)C(=O)N(c2cc(C3CCC3)on2)C1O (stereo not shown) [A21],5
4,COCC(C)(C)c1cc(N2C(=O)C(C)=C(OC)C2O)no1 (stereo not shown) [G3],5
5,COC1=C(C)C(=O)N(c2noc(C(C)(C)C)c2C#N)C1O (stereo not shown) [G7],5

# Same assay, conditions: ECHCG, application pre-emergence, rate 1000 g/Ha, scale 0-5
row,Structure (SMILES),"Pre-emergence herbicidal damage score, ECHCG"
1,"CC1=C(Cl)C(=O)N(c2noc(C(C)(C)C)c2F)C1O (stereo not shown) [A19, 1-(5-tert-butyl-4-fluoro-isoxazol-3-yl)-4-chloro-2-hydroxy-3-methyl-2H-pyrrol-5-one]",5
2,"CC1=C(Cl)C(=O)N(c2noc(C(C)(C)C)c2C)C1O (stereo not shown) [A20, 1-(5-tert-butyl-4-methyl-isoxazol-3-yl)-4-chloro-2-hydroxy-3-methyl-2H-pyrrol-5-one]",5
3,CC1=C(Cl)C(=O)N(c2cc(C3CCC3)on2)C1O (stereo not shown) [A21],5
4,COCC(C)(C)c1cc(N2C(=O)C(C)=C(OC)C2O)no1 (stereo not shown) [G3],5
5,COC1=C(C)C(=O)N(c2noc(C(C)(C)C)c2C#N)C1O (stereo not shown) [G7],5

# Same assay, conditions: SETFA, application pre-emergence, rate 1000 g/Ha, scale 0-5
row,Structure (SMILES),"Pre-emergence herbicidal damage score, SETFA"
1,"CC1=C(Cl)C(=O)N(c2noc(C(C)(C)C)c2F)C1O (stereo not shown) [A19, 1-(5-tert-butyl-4-fluoro-isoxazol-3-yl)-4-chloro-2-hydroxy-3-methyl-2H-pyrrol-5-one]",5
2,"CC1=C(Cl)C(=O)N(c2noc(C(C)(C)C)c2C)C1O (stereo not shown) [A20, 1-(5-tert-butyl-4-methyl-isoxazol-3-yl)-4-chloro-2-hydroxy-3-methyl-2H-pyrrol-5-one]",5
3,CC1=C(Cl)C(=O)N(c2cc(C3CCC3)on2)C1O (stereo not shown) [A21],3
4,COCC(C)(C)c1cc(N2C(=O)C(C)=C(OC)C2O)no1 (stereo not shown) [G3],5
5,COC1=C(C)C(=O)N(c2noc(C(C)(C)C)c2C#N)C1O (stereo not shown) [G7],5

# Same assay, conditions: ZEAMX, application pre-emergence, rate 1000 g/Ha, scale 0-5
row,Structure (SMILES),"Pre-emergence herbicidal damage score, ZEAMX"
1,COCC(C)(C)c1cc(N2C(=O)C(C)=C(OC)C2O)no1 (stereo not shown) [G3],4
2,COC1=C(C)C(=O)N(c2noc(C(C)(C)C)c2C#N)C1O (stereo not shown) [G7],4

# Tested on: not given
# Test: not given
# Conditions: not given
row,Structure (SMILES),melting point [°C]
1,"CC1=C(Cl)C(=O)N(c2noc(C(C)(C)C)c2F)C1O (stereo not shown) [A19, 1-(5-tert-butyl-4-fluoro-isoxazol-3-yl)-4-chloro-2-hydroxy-3-methyl-2H-pyrrol-5-one]",98 to 100
2,"CC1=C(Cl)C(=O)N(c2noc(C(C)(C)C)c2C)C1O (stereo not shown) [A20, 1-(5-tert-butyl-4-methyl-isoxazol-3-yl)-4-chloro-2-hydroxy-3-methyl-2H-pyrrol-5-one]",134 to 136
3,CC1=C(Cl)C(=O)N(c2cc(C3CCC3)on2)C1O (stereo not shown) [A21],130 to 132
4,"CC1=C(Cl)C(=O)N(c2cc(C(C)(C)C(N)=O)on2)C1O (stereo not shown) [A67, 2-[3-(4-chloro-2-hydroxy-3-methyl-5-oxo-2H-pyrrol-1-yl)isoxazol-5-yl]-2-methyl-propanamide]",169 to 171

# Tested on: a variety of test species
# Test: Post-emergence herbicidal activity (glasshouse, sprayed after 8 days cultivation, evaluated after 13 days)
# Assay type: in vivo
# Design: key: 5=total damage to plant; 0=no damage to plant
# Conditions: Abutilon theophrasti, rate 1000 g/Ha, scale 0-5
# How it was run: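 Seeds were sown in standard soil and cultivated for 8 days under controlled glasshouse conditions. Seedlings were then sprayed with an aqueous solution of the formulated compound containing 0.5% Tween 20. Injury was rated after a further 13 days, where 5 indicated total damage.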
row,Structure (SMILES),"ABUTH (Abutilon theophrasti) damage score, application post-emergence"
1,COCC(C)(C)c1cc(N2C(=O)C(C)=C(OC)C2O)no1 (stereo not shown) [G3],5
2,COC1=C(C)C(=O)N(c2noc(C(C)(C)C)c2C#N)C1O (stereo not shown) [G7],5

# Same assay, conditions: Alopecurus myosuroides, rate 1000 g/Ha, scale 0-5
row,Structure (SMILES),"ALOMY (Alopecurus myosuroides) damage score, application post-emergence"
1,"CC1=C(Cl)C(=O)N(c2noc(C(C)(C)C)c2F)C1O (stereo not shown) [A19, 1-(5-tert-butyl-4-fluoro-isoxazol-3-yl)-4-chloro-2-hydroxy-3-methyl-2H-pyrrol-5-one]",5
2,"CC1=C(Cl)C(=O)N(c2noc(C(C)(C)C)c2C)C1O (stereo not shown) [A20, 1-(5-tert-butyl-4-methyl-isoxazol-3-yl)-4-chloro-2-hydroxy-3-methyl-2H-pyrrol-5-one]",5
3,CC1=C(Cl)C(=O)N(c2cc(C3CCC3)on2)C1O (stereo not shown) [A21],5
4,COCC(C)(C)c1cc(N2C(=O)C(C)=C(OC)C2O)no1 (stereo not shown) [G3],4
5,COC1=C(C)C(=O)N(c2noc(C(C)(C)C)c2C#N)C1O (stereo not shown) [G7],5

# Same assay, conditions: Amaranthus retroflexus, rate 1000 g/Ha, scale 0-5
row,Structure (SMILES),"AMARE (Amaranthus retroflexus) damage score, application post-emergence"
1,"CC1=C(Cl)C(=O)N(c2noc(C(C)(C)C)c2F)C1O (stereo not shown) [A19, 1-(5-tert-butyl-4-fluoro-isoxazol-3-yl)-4-chloro-2-hydroxy-3-methyl-2H-pyrrol-5-one]",5
2,"CC1=C(Cl)C(=O)N(c2noc(C(C)(C)C)c2C)C1O (stereo not shown) [A20, 1-(5-tert-butyl-4-methyl-isoxazol-3-yl)-4-chloro-2-hydroxy-3-methyl-2H-pyrrol-5-one]",4
3,CC1=C(Cl)C(=O)N(c2cc(C3CCC3)on2)C1O (stereo not shown) [A21],5
4,COCC(C)(C)c1cc(N2C(=O)C(C)=C(OC)C2O)no1 (stereo not shown) [G3],3
5,COC1=C(C)C(=O)N(c2noc(C(C)(C)C)c2C#N)C1O (stereo not shown) [G7],5

# Same assay, conditions: Echinochloa crus-galli, rate 1000 g/Ha, scale 0-5
row,Structure (SMILES),"ECHCG (Echinochloa crus-galli) damage score, application post-emergence"
1,"CC1=C(Cl)C(=O)N(c2noc(C(C)(C)C)c2F)C1O (stereo not shown) [A19, 1-(5-tert-butyl-4-fluoro-isoxazol-3-yl)-4-chloro-2-hydroxy-3-methyl-2H-pyrrol-5-one]",5
2,"CC1=C(Cl)C(=O)N(c2noc(C(C)(C)C)c2C)C1O (stereo not shown) [A20, 1-(5-tert-butyl-4-methyl-isoxazol-3-yl)-4-chloro-2-hydroxy-3-methyl-2H-pyrrol-5-one]",5
3,CC1=C(Cl)C(=O)N(c2cc(C3CCC3)on2)C1O (stereo not shown) [A21],5
4,COCC(C)(C)c1cc(N2C(=O)C(C)=C(OC)C2O)no1 (stereo not shown) [G3],5
5,COC1=C(C)C(=O)N(c2noc(C(C)(C)C)c2C#N)C1O (stereo not shown) [G7],5

# Same assay, conditions: Setaria faberi, rate 1000 g/Ha, scale 0-5
row,Structure (SMILES),"SETFA (Setaria faberi) damage score, application post-emergence"
1,"CC1=C(Cl)C(=O)N(c2noc(C(C)(C)C)c2F)C1O (stereo not shown) [A19, 1-(5-tert-butyl-4-fluoro-isoxazol-3-yl)-4-chloro-2-hydroxy-3-methyl-2H-pyrrol-5-one]",5
2,"CC1=C(Cl)C(=O)N(c2noc(C(C)(C)C)c2C)C1O (stereo not shown) [A20, 1-(5-tert-butyl-4-methyl-isoxazol-3-yl)-4-chloro-2-hydroxy-3-methyl-2H-pyrrol-5-one]",5
3,CC1=C(Cl)C(=O)N(c2cc(C3CCC3)on2)C1O (stereo not shown) [A21],5
4,COCC(C)(C)c1cc(N2C(=O)C(C)=C(OC)C2O)no1 (stereo not shown) [G3],5
5,COC1=C(C)C(=O)N(c2noc(C(C)(C)C)c2C#N)C1O (stereo not shown) [G7],5

# Same assay, conditions: Zea mays, rate 1000 g/Ha, scale 0-5
row,Structure (SMILES),"ZEAMX (Zea mays) damage score, application post-emergence"
1,COCC(C)(C)c1cc(N2C(=O)C(C)=C(OC)C2O)no1 (stereo not shown) [G3],5
2,COC1=C(C)C(=O)N(c2noc(C(C)(C)C)c2C#N)C1O (stereo not shown) [G7],5
